Broadly, the melting point is the temperature of the solid-liquid transition.

Compound `O=C(Nc1cc(Oc2cccnc2)cc(-c2ccccn2)c1)c1ccc(F)cc1` [Example 2, 4-Fluoro-N-[3-pyridin-2-yl-5-(pyridin-3-yloxy)-phenyl]-benzamide] displayed a melting point of 160 to 162 °C.

The values are drawn from US7605164B2, “Compositions and methods for treating heart failure” (Cytokinetics, Inc., priority 2001, dated 2009).
